Experimental data published in patent publication US9637481B2 (RALEXAR THERAPEUTICS, INC., priority 2012, dated 2017).
pEC50: −log10 of the molar value.

Each molecule was assayed against T1, human LXRβ (AA 153-461) LBD (Homo sapiens, UniProt P55055) (assay: Gal4 LXRβ cotransfection assay (LXRβ Gal fusion assay)). Conditions: HEK 293 cells, Gal4-responsive luciferase reporter, compounds 0.01-10 μM.
T1 construct: pM human LXRβ (AA 153-461) LBD plasmid; expressed in transfected cells; host or cells: HEK 293
T1 sequence (P55055 153-460 limits assumed): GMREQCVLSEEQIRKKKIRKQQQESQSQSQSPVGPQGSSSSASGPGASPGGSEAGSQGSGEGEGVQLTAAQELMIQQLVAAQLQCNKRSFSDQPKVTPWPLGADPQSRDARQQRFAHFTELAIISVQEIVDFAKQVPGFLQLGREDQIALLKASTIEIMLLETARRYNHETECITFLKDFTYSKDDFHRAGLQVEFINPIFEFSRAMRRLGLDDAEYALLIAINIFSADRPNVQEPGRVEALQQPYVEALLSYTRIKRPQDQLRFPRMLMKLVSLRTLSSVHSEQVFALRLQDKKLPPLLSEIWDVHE
Format: cell-based
Description: For transient transfection of HEK 293 cells, 6×10^3 cells were plated into 96-well dishes. Each well was transfected with 25 ng 5×UAS-luciferase reporter (pG5luc) and 25 ng of pM human LXRβ (AA 153-461) LBD plasmid using Fugene 6 reagent (Roche; Indianapolis, Ind.). The chimeric protein was assessed for the ability to transactivate a Gal4-responsive luciferase reporter plasmid in a concentration-responsive manner to compounds (0.01-10 μM). Luciferase activity at each dose concentration was measured in triplicate using standard substrate reagents (BD Biosciences; San Diego, Calif.). Data are expressed as relative light units and are shown below in Table 1.

SMILES | pEC50
CS(=O)(=O)c1cccc(-c2ccc(-c3cc(C(F)(F)F)nn3CC(=O)O)cc2)c1 [Compound 38, 2-(5-(3′-(methylsulfonyl)-[1,1′-biphenyl]-4-yl)-3-(trifluoromethyl)-1H-pyrazol-1-yl)acetic acid] | < 5.00
CSCOC(=O)Cn1nc(C(F)(F)F)cc1-c1ccc(-c2cccc(S(C)(=O)=O)c2)cc1 [Compound 41, methylthiomethyl 2-(5-(3′-(methylsulfonyl)biphenyl-4-yl)-3-(trifluoromethyl)-1H-pyrazol-1-yl)acetate] | 5.00 to 6.00
CS(=O)(=O)c1cccc(-c2nnc(-c3cc(C(=O)O)nn3-c3ccccc3Cl)o2)c1 [Compound 12, 1-(2-chlorophenyl)-5-(5-(3-(methylsulfonyl)phenyl)-1,3,4-oxadiazol-2-yl)-1H-pyrazole-3-carboxylic acid] | < 5.00
CCOC(=O)Cn1nc(C(F)(F)F)cc1-c1ccc(-c2ccc(CO)c(S(C)(=O)=O)c2)s1 [Compound 50, ethyl 2-(5-(5-(4-(hydroxymethyl)-3-(methylsulfonyl)phenyl)thiophen-2-yl)-3-(trifluoromethyl)-1H-pyrazol-1-yl)acetate] | > 6.00
CS(=O)(=O)c1cccc(-c2ccc(-c3cc(C(F)(F)F)nn3CC(=O)OCCl)s2)c1 [Compound 52, chloromethyl 2-(5-(5-(3-(methylsulfonyl)phenyl)thiophen-2-yl)-3-(trifluoromethyl)-1H-pyrazol-1-yl)acetate] | > 6.00
CCOC(=O)Cn1nc(C(F)(F)F)cc1-c1ccc(-c2cccc(S(C)(=O)=O)c2)s1 [Compound 16, ethyl 2-(5-(5-(3-(methylsulfonyl)phenyl)thiophen-2-yl)-3-(trifluoromethyl)-1H-pyrazol-1-yl)acetate] | > 6.00
CCOC(=O)Cn1nc(C(F)(F)F)cc1-c1ccc(-c2cccc(S(C)(=O)=O)c2)cc1 [Compound 36, ethyl 2-(5-(3′-(methylsulfonyl)-[1,1′-biphenyl]-4-yl)-3-(trifluoromethyl)-1H-pyrazol-1-yl)acetate] | > 6.00

Other lines, results leading:

pEC50 | SMILES
< 5.00 | COC(=O)Cn1nc(C(F)(F)F)cc1-c1ccc(-c2cccc(S(C)(=O)=O)c2)s1 [Compound 18, methyl 2-(5-(5-(3-(methylsulfonyl)phenyl)thiophen-2-yl)-3-(trifluoromethyl)-1H-pyrazol-1-yl)acetic acid]
> 6.00 | CC(C)OC(=O)Cn1nc(C(F)(F)F)cc1-c1ccc(-c2cccc(S(C)(=O)=O)c2)s1 [Compound 49]
> 6.00 | CCOC(=O)Cn1nc(C(F)(F)F)cc1-c1ccc(-c2ccc(CO)c(S(C)(=O)=O)c2)cc1 [Compound 51, ethyl 2-(5-(4′-(hydroxymethyl)-3′-(methylsulfonyl)biphenyl-4-yl)-3-(trifluoromethyl)-1H-pyrazol-1-yl)acetate]
> 6.00 | COC(=O)c1cc(-c2nnc(-c3cccc(S(C)(=O)=O)c3)o2)n(-c2ccccc2Cl)n1 [Compound 11, methyl 1-(2-chlorophenyl)-5-(5-(3-(methylsulfonyl)phenyl)-1,3,4-oxadiazol-2-yl)-1H-pyrazole-3-carboxylate]
< 5.00 | CS(=O)(=O)c1cccc(-c2nnc(-c3cc(C(=O)O)nn3-c3ccccc3Cl)s2)c1 [Compound 10, 1-(2-chlorophenyl)-5-(5-(3-(methylsulfonyl)phenyl)-1,3,4-thiadiazol-2-yl)-1H-pyrazole-3-carboxylic acid]
5.00 to 6.00 | COC(=O)c1cc(-c2nnc(-c3cccc(S(C)(=O)=O)c3)s2)n(-c2ccccc2Cl)n1 [Compound 9, methyl 1-(2-chlorophenyl)-5-(5-(3-(methylsulfonyl)phenyl)-1,3,4-thiadiazol-2-yl)-1H-pyrazole-3-carboxylate]
